Data taken from ChEMBL document CHEMBL3272271, “Folate antagonists. 13. 2,4-Diamino-6-](alpha,alpha,alpha-trifluoro-m-tolyl)thio]quinazoline and related 2,4-diamino-6-[(phenyl- and naphthyl)thio]quinazolines, a unique class of antimetabolites with extraordinary antimalarial and antibacterial effects” (J Med Chem, 1978).
The source made the active and inactive calls. The calls are words filed in the database; no cut-off is given here.

Tests used:
Plasmodium gallinaceum [1] = assay: Antimalarial activity against trophozoite-induced Plasmodium gallinaceum infected in white leghorn chicken assessed as disease cure from parasite infection at 160 mg/kg, sc administered 72 hrs after infection; assay type: functional, organism-based; parameters: dose 160 mg/kg
Plasmodium gallinaceum [2] = assay: Antimalarial activity against trophozoite-induced Plasmodium gallinaceum infected in white leghorn chicken assessed as disease cure from parasite infection at 120 mg/kg, sc administered 72 hrs after infection; assay type: functional, organism-based; parameters: dose 120 mg/kg
Gallus gallus [3] = assay: Toxicity in trophozoite-induced Plasmodium gallinaceum infected white leghorn chicken assessed as mortality at 120 mg/kg, sc administered 72 hrs after infection measured after 48 hrs; assay type: organism-based; parameters: dose 120 mg/kg, route subcutaneous; conditions: in vivo
Plasmodium gallinaceum [4] = assay: Antimalarial activity against trophozoite-induced Plasmodium gallinaceum infected in white leghorn chicken assessed as increase in mean survival days of host at 60 mg/kg, sc administered 72 hrs after infection relative to control; assay type: functional; conditions: route subcutaneous
Plasmodium gallinaceum [5] = assay: Antimalarial activity against trophozoite-induced Plasmodium gallinaceum infected in white leghorn chicken assessed as disease cure from parasite infection at 60 mg/kg, sc administered 72 hrs after infection; assay type: functional, organism-based; parameters: dose 60 mg/kg
Plasmodium gallinaceum [6] = assay: Antimalarial activity against trophozoite-induced Plasmodium gallinaceum infected in white leghorn chicken assessed as increase in mean survival days of host at 30 mg/kg, sc administered 72 hrs after infection relative to control; assay type: functional; conditions: route subcutaneous
Plasmodium gallinaceum [7] = assay: Antimalarial activity against trophozoite-induced Plasmodium gallinaceum infected in white leghorn chicken assessed as disease cure from parasite infection at 30 mg/kg, sc administered 72 hrs after infection; assay type: functional, organism-based; parameters: dose 30 mg/kg
Gallus gallus [8] = assay: Toxicity in sporozoite-induced Plasmodium gallinaceum infected white leghorn chicken assessed as mortality at 480 mg/kg, sc administered 72 hrs after infection measured up to 6 days; assay type: organism-based; parameters: dose 480 mg/kg, route subcutaneous; conditions: in vivo
Gallus gallus [9] = assay: Toxicity in sporozoite-induced Plasmodium gallinaceum infected white leghorn chicken assessed as mortality at 240 mg/kg, sc administered 72 hrs after infection measured up to 6 days; assay type: organism-based; parameters: dose 240 mg/kg, route subcutaneous; conditions: in vivo
Gallus gallus [10] = assay: Toxicity in sporozoite-induced Plasmodium gallinaceum infected white leghorn chicken assessed as mortality at 120 mg/kg, sc administered 72 hrs after infection measured up to 6 days; assay type: organism-based; parameters: dose 120 mg/kg, route subcutaneous; conditions: in vivo
Plasmodium gallinaceum [11] = assay: Antimalarial activity against sporozoite-induced Plasmodium gallinaceum infected in white leghorn chicken assessed as increase in mean survival days of host at 60 mg/kg, sc administered 72 hrs after infection relative to control; assay type: functional; conditions: route subcutaneous
Gallus gallus [12] = assay: Toxicity in sporozoite-induced Plasmodium gallinaceum infected white leghorn chicken assessed as mortality at 60 mg/kg, sc administered 72 hrs after infection measured up to 6 days; assay type: organism-based; parameters: dose 60 mg/kg, route subcutaneous; conditions: in vivo
Plasmodium gallinaceum [13] = assay: Antimalarial activity against sporozoite-induced Plasmodium gallinaceum infected in white leghorn chicken assessed as increase in mean survival days of host at 30 mg/kg, sc administered 72 hrs after infection relative to control; assay type: functional; conditions: route subcutaneous
Plasmodium gallinaceum [14] = assay: Antimalarial activity against sporozoite-induced Plasmodium gallinaceum infected in white leghorn chicken assessed as increase in mean survival days of host at 15 mg/kg, sc administered 72 hrs after infection relative to control; assay type: functional; conditions: route subcutaneous
Plasmodium berghei [15] = assay: Antimalarial activity against Plasmodium berghei infected in mouse assessed as increase in mean survival days of host at 80 mg/kg, sc administered 72 hrs after infection relative to control; assay type: functional; conditions: route subcutaneous
Plasmodium berghei [16] = assay: Antimalarial activity against Plasmodium berghei infected in mouse assessed as increase in mean survival days of host at 40 mg/kg, sc administered 72 hrs after infection relative to control; assay type: functional; conditions: route subcutaneous
Plasmodium berghei [17] = assay: Antimalarial activity against Plasmodium berghei infected in mouse assessed as increase in mean survival days of host at 20 mg/kg, sc administered 72 hrs after infection relative to control; assay type: functional; conditions: route subcutaneous
Plasmodium berghei [18] = assay: Antimalarial activity against Plasmodium berghei infected in mouse assessed as increase in mean survival days of host at 10 mg/kg, sc administered 72 hrs after infection relative to control; assay type: functional; conditions: route subcutaneous
Plasmodium berghei [19] = assay: Antimalarial activity against DDS-resistant Plasmodium berghei assessed as drug resistance relative to control; assay type: functional
Plasmodium berghei [20] = assay: Antimalarial activity against Plasmodium berghei infected in mouse assessed as disease cure from parasite infection at 320 mg/kg, sc administered 72 hrs after infection; assay type: functional, organism-based; parameters: dose 320 mg/kg
Plasmodium berghei [21] = assay: Antimalarial activity against Plasmodium berghei infected in mouse assessed as disease cure from parasite infection at 160 mg/kg, sc administered 72 hrs after infection; assay type: functional, organism-based; parameters: dose 160 mg/kg
Plasmodium berghei [22] = assay: Antimalarial activity against Plasmodium berghei infected in mouse assessed as disease cure from parasite infection at 80 mg/kg, sc administered 72 hrs after infection; assay type: functional, organism-based; parameters: dose 80 mg/kg
Plasmodium berghei [23] = assay: Antimalarial activity against Plasmodium berghei infected in mouse assessed as disease cure from parasite infection at 40 mg/kg, sc administered 72 hrs after infection; assay type: functional, organism-based; parameters: dose 40 mg/kg
Mus musculus [24] = assay: Toxicity in Plasmodium berghei infected mouse assessed as mortality at 320 mg/kg, sc administered 72 hrs after infection measured after 2 to 5 days; assay type: organism-based; parameters: dose 320 mg/kg, route subcutaneous; conditions: in vivo
Mus musculus [25] = assay: Toxicity in Plasmodium berghei infected mouse assessed as mortality at 640 mg/kg, sc administered 72 hrs after infection measured after 2 to 5 days; assay type: organism-based; parameters: dose 640 mg/kg, route subcutaneous; conditions: in vivo
Plasmodium berghei [26] = assay: Antimalarial activity against trophozoite-induced Plasmodium berghei infected in mouse assessed as daily dose required to suppression of 90% parasite infection administered with diet for 6 days; assay type: functional
Plasmodium berghei [27] = assay: Ratio of quinine hydrochloride SD90 to compound SD90 for trophozoite-induced Plasmodium berghei infected in mouse assessed as daily dose required to suppression of 90% parasite infection administered with diet for 6 days; assay type: functional

CC1(C)N=C(N)N=C(N)N1c1ccc(Cl)cc1.Cl [CHLORCYCLOGUANIL HYDROCHLORIDE]
Activity (Plasmodium gallinaceum [1]): Active | Activity (Plasmodium gallinaceum [2]): Active | Activity (Gallus gallus [3]): Toxic | MST (Plasmodium gallinaceum [4]): 15.1 days | Activity (Plasmodium gallinaceum [5]): Active | MST (Plasmodium gallinaceum [6]): 11.7 days | Activity (Plasmodium gallinaceum [7]): Active | Activity (Gallus gallus [8]): Toxic | Activity (Gallus gallus [9]): Toxic | Activity (Gallus gallus [10]): Toxic | MST (Plasmodium gallinaceum [11]): 0 days | Activity (Gallus gallus [12]): Toxic | MST (Plasmodium gallinaceum [13]): 2.3 days | MST (Plasmodium gallinaceum [14]): 0 days | MST (Plasmodium berghei [15]): 21.6 days | MST (Plasmodium berghei [16]): 13.4 days | MST (Plasmodium berghei [17]): 7.9 days | MST (Plasmodium berghei [18]): 4.9 days | fold change (FC) (Plasmodium berghei [19]): <2 | Activity (Plasmodium berghei [20]): Active | Activity (Plasmodium berghei [21]): Active | Activity (Plasmodium berghei [22]): Active | Activity (Plasmodium berghei [23]): Active | Activity (Mus musculus [24]): Toxic | Activity (Mus musculus [25]): Toxic | SD90 (Plasmodium berghei [26]): 2.1 mg/kg/day | Ratio (Plasmodium berghei [27]): 35
